Patent US10213450B2, “Combination of biologically active substances for treatment of hyperglycaemic disorders” (BioActive Food GmbH, priority 2014, dated 2019)

Columns and labels:
[1] = target: T1, lactase phlorizin hydrolase (LPH) (Homo sapiens, UniProt P09848); assay: In vitro inhibition of LPH, phlorizin dihydrate as substrate, released glucose measured; assay type: biochemical
T1 construct: tissue of the human small intestine (0.6 mg/ml) expressing the LPH was used; from tissue; host or cells: human small intestine tissue
Procedure: Various quercetin and kaempferol derivates were tested in vitro as inhibitors of lactase phlorizin hydrolase (LPH). The testing was carried out according to Amiri et al. (2012, J Inherit Metab Dis, 35(6): 949-54). Here, tissue of the human small intestine (0.6 mg/ml) expressing the LPH was used. Phlorizin dihydrate served as the substrate. The released glucose was measured using a standard assay (Chu & Cheung, 1978, Clin Biochem, 11(4): 187-9).

human SGLT1 = target: T2, human SGLT1 (Homo sapiens, UniProt P13866); assay: Ex vivo model: incubation with LPH-expressing human small intestine brush border membranes, then SGLT1 activity of supernatants by two-electrode voltage-clamp in Xenopus oocytes; assay type: cell-based; details: LPH inhibitor 10 μg/ml alone
T2 construct: expressed in transfected cells; host or cells: Xenopus oocytes
T2 sequence (P13866 1-664): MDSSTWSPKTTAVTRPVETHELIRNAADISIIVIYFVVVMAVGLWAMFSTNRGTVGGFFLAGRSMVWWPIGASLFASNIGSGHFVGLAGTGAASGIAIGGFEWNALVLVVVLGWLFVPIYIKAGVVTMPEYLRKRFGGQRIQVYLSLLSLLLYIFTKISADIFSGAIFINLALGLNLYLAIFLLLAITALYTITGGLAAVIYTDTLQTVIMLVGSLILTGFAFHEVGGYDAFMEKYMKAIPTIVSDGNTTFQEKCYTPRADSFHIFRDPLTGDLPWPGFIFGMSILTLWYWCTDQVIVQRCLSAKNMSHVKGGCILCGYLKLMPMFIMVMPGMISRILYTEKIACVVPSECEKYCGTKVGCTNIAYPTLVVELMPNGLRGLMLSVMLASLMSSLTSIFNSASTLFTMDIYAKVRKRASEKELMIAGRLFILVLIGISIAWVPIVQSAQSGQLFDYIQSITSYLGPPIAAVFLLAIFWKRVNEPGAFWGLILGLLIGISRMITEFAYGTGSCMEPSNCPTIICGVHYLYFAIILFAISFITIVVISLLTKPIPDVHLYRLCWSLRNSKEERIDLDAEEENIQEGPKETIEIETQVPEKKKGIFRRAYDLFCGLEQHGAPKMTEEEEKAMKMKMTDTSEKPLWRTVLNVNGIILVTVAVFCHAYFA
Procedure: The effect of a combination of phlorizin and a LPH inhibitor on the uptake of glucose by the SGLT 1 transporter was tested with an ex vivo model that simulates the situation in the human intestine. The ex vivo test model uses tissue from the human small intestine which expresses the lactase phlorizin hydrolase (LPH) and is thus able to cleave phlorizin and other glycosides. Subsequently, the reaction batches that had been pre-processed in this way were tested in an in vitro assay for their inhibitory effect on the SGLT1 transporter.
In summary, so-called “brush border membranes” were prepared from the small intestine and incubated in an appropriate buffer with phlorizin and/or the respective LPH inhibitor for 90 minutes.
Here, Xenopus oocytes were used which express the human SGLT1. The transport of glucose by SGLT1 can be measured because the combined transport of glucose and sodium by SGLT1 causes a current through the oocyte membrane. This current is determined electrophysiologically by a “two-electrode voltage-clamp” method. In this model, a reduction in the activity of the SGLT1 also results in a reduction of current across the cell membrane.

T1 sequence (P09848 869-1927): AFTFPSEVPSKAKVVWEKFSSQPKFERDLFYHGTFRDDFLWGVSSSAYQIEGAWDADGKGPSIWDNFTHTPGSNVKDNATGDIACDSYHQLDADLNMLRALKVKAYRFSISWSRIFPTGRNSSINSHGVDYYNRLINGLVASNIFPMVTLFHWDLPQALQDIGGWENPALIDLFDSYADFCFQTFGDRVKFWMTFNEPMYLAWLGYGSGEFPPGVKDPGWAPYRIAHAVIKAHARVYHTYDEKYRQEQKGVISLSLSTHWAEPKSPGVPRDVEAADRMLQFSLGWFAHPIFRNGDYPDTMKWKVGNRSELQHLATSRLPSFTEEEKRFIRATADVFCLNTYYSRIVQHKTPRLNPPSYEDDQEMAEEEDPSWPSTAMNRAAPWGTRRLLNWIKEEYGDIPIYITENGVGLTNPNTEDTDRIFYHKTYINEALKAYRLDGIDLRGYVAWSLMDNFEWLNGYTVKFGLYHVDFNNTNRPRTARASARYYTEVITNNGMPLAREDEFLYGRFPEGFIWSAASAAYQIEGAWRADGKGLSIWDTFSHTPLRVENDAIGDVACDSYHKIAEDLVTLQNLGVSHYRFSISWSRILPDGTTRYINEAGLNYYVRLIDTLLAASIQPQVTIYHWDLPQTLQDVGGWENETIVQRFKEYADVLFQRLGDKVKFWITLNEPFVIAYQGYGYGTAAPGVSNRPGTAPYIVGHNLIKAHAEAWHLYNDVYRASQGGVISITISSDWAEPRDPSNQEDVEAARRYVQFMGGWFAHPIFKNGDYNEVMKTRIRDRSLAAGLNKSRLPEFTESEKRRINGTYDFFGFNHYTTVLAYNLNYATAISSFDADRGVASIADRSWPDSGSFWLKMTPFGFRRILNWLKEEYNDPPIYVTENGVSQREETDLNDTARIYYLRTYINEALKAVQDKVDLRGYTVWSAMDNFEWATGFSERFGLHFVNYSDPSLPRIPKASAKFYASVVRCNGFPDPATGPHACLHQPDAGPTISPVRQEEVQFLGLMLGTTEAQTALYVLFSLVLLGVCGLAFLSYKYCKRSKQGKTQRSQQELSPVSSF

SMILES | inhibition of the LPH ([1]; concentration of 50 mg/ml (as printed in text)) | Glucose uptake, inhibition (human SGLT1; Batch A) | Glucose uptake, inhibition (human SGLT1; Batch B) | inhibition at 100 µg/mL ([1]; 100 μg/ml inhibitor (stated in cell))
O=c1c(O)c(-c2ccc(O)c(O)c2)oc2cc(OC3O[C@H](CO)[C@@H](O)[C@H](O)[C@H]3O)cc(O)c12 (stereo partly shown) [No. 3, 3,3′,4′,5,7-pentahydroxy flavone-7-glucoside] | about 70% | 2% | 2.5% | –
O=c1c(OC2O[C@H](CO)[C@@H](O)[C@H](O)[C@H]2O)c(-c2ccc(O)c(O)c2)oc2cc(O)cc(O)c12 (stereo partly shown) [compound 2] | – | – | – | 13.7%
